This is an account of results in patent US8802671B2, “Quinoline derivatives as antibacterial agents” (Janssen Pharmaceutica NV, priority 2005, dated 2014).

Converted amounts (≈) assume the structure as drawn.

For data set [1], the system named is Listeria monocytogenes (ATCC49594). Briefly: Microtitre plate assay, IC90 determination. In kind it is cell-based. The settings on record: 90% inhibitory concentration for bacterial growth; for IC90: read-out: IC90 LMO 49594. The method, then: (§1) The bacteria used in this study were grown overnight in flasks containing 100 ml Mueller-Hinton Broth (Becton Dickinson—cat. no. 275730) in sterile de-ionized water, with shaking, at 37° C. Stocks (0.5 ml/tube) were stored at −70° C. until use. Bacteria titrations were performed in microtiter plates and colony forming units (CFUs) were determined. In general, an inoculum level of approximately 100 CFUs was used for susceptibility testing.
(§2) Anti Bacterial Susceptibility Testing: IC90 Determination
(§3) Flat-bottom, sterile 96-well plastic microtiter plates were filled with 180 μl of sterile deionized water, supplemented with 0.25% BSA. Subsequently, stock solutions (7.8× final test concentration) of compounds were added in 45 μl volumes in column 2. Serial five-fold dilutions (45 μl in 180 μl) were made directly in the microtiter plates from column 2 to reach column 11. Untreated control samples with (column 1) and without (column 12) inoculum were included in each microtiter plate. Depending on the bacteria type, approximately 10 to 60 CFU per well of bacteria inoculum (100 TCID50), in a volume of 100 μl in 2.8× Mueller-Hinton broth medium, was added to the rows A to H, except column 12. The same volume of broth medium without inoculum was added to column 12 in row A to H. The cultures were incubated at 37° C. for 24 hours under a normal atmosphere (incubator with open air valve and continuous ventilation). At the end of incubation, one day after inoculation, the bacterial growth was quantitated fluorometrically. Therefore resazurin (0.6 mg/ml) was added in a volume of 20 μl to all wells 3 hours after inoculation, and the plates were re-incubated overnight. A change in colour from blue to pink indicated the growth of bacteria. The fluorescence was read in a computer-controlled fluorometer (Cytofluor Biosearch) at an excitation wavelength of 530 nm and an emission wavelength of 590 nm. The % growth inhibition achieved by the compounds was calculated according to standard methods. The IC90 (expressed in μg/ml) was defined as the 90% inhibitory concentration for bacterial growth.

The subject of data set [2] is Pseudomonas aeruginosa (ATCC27853). Briefly: Microtitre plate assay, IC90 determination. Type of data set: cell-based. The conditions noted are these: 90% inhibitory concentration for bacterial growth; for IC90: read-out: IC90 PAE 27853. The method, then: as §1, §2, §3
Data set [3] has as its system Staphylococcus aureus (ATCC29213). Briefly: Microtitre plate assay, IC90 determination. Type of data set: cell-based. The settings on record: 90% inhibitory concentration for bacterial growth, 37° C., resazurin fluorescence; for IC90: Staphylococcus aureus, ATCC29213, 24 h, read-out: IC90 STA 29213; for IC90 STA 29213: 24 hours. On the procedure:
as §1, §2, §3
In general terms: Resazurin is reduced to fluorescent resorufin, in cell work by metabolically active cells.

Data set [4] relates to Streptococcus pneumoniae (ATCC6305). As to the kind of experiment: Microtitre plate assay, IC90 determination. Type of data set: cell-based. The conditions noted are these: 90% inhibitory concentration for bacterial growth; for IC90: read-out: IC90 SPN 6305. The method, then: as §1, §2, §3
Data set [5] relates to Bacillus subtilis (ATCC43639). Briefly: Microtitre plate assay, IC90 determination. Type of data set: cell-based. The settings on record: 90% inhibitory concentration for bacterial growth; for IC90: read-out: IC90 BSU 43639. The method, then: as §1, §2, §3
Data set [6] concerns Enterococcus faecalis (ATCC29212). As to the kind of experiment: Microtitre plate assay, IC90 determination. Type of data set: cell-based. The conditions noted are these: 90% inhibitory concentration for bacterial growth; for IC90: read-out: IC90 EFA 29212. The method, then:
as §1, §2, §3

The subject of data set [7] is Staphylococcus aureus (ATCC25923). Briefly: Microtitre plate assay, IC90 determination. In kind it is cell-based. The settings on record: for IC90: Staphylococcus aureus, ATCC25923, 90% inhibitory concentration for bacterial growth, read-out: IC90 STA 25923; for IC90 STA 25923: 90% inhibitory concentration for bacterial growth. The method, then:
as §1, §2, §3

For data set [8], the system named is methicilline resistant Staphylococcus aureus (MRSA) (a clinical isolate from the University of Antwerp). As to the kind of experiment: Microtitre plate assay, IC90 determination. Type of data set: cell-based. The conditions noted are these: 90% inhibitory concentration for bacterial growth; for IC90: Staphylococcus aureus, MRSA, read-out: IC90 STA RMETHIC. The method, then: as §1, §2, §3

The test system of data set [9] is Streptococcus pyogens (ATCC8668). As to the kind of experiment: Microtitre plate assay, IC90 determination. In kind it is cell-based. The conditions noted are these: for IC90: Streptococcus, ATCC8668, 90% inhibitory concentration for bacterial growth, read-out: IC90 SPY 8668; for IC90 SPY 8668: 90% inhibitory concentration for bacterial growth. The method, then:
as §1, §2, §3

For data set [10], the system named is Enterococcus faecalis (ATCC14506). As to the kind of experiment: Microtitre plate assay, IC90 determination. In kind it is cell-based. The settings on record: 90% inhibitory concentration for bacterial growth; for IC90: read-out: IC90 EFA 14506. The method, then:
as §1, §2, §3

For data set [11], the system named is Streptococcus mutans (ATCC33402). Briefly: Microtitre plate assay, IC90 determination. The conditions noted are these: 90% inhibitory concentration for bacterial growth, read-out: IC90 SMU 33402. In kind it is cell-based. The method, then:
as §1, §2, §3

By IC90 is commonly meant the concentration needed for an effect of 90%. In general, melting point refers to the temperature, or range, at which the solid turns liquid.

`CCc1cc2cc(C(c3ccccc3)C(O)(CCN(C)C)c3cc(F)cc(F)c3)ccc2nc1Cl` (single isomer, unassigned) [Compound 11]: the IC90 was found to be 7.9 µg/mL (≈ 16 µM) in [1]; 12.4 µg/mL (≈ 25 µM) in [2]; 12.4 µg/mL (≈ 25 µM) in [3]; 12.4 µg/mL (≈ 25 µM) in data set [4]; 39.3 µg/mL (≈ 79.4 µM) in data set [5]; 12.4 µg/mL (≈ 25 µM) in [6]. Besides, the IC90 came to 49.5 µg/mL (≈ 100 µM) in data set [7], 49.5 µg/mL (≈ 100 µM) in [8] and 12.4 µg/mL (≈ 25 µM) in data set [9].

For `CCc1cc2cc(C(c3ccccc3)C(O)(CCN(C)C)c3cccc4ccccc34)ccc2nc1Cl` (single isomer, unassigned) [Compound 5], in data set [1], the “IC90 LMO 49594” value was found to be 12.8 µg/mL (≈ 25.1 µM). Also, the “IC90 PAE 27853” value in [2] was determined as 12.8 µg/mL (≈ 25.1 µM). For the same compound, the “IC90 STA 29213” value in data set [3] is 12.8 µg/mL (≈ 25.1 µM). Further, in data set [4], the “IC90 SPN 6305” value worked out at 12.8 µg/mL (≈ 25.1 µM). In addition, the “IC90 BSU 43639” value in [5] was 12.8 µg/mL (≈ 25.1 µM). The “IC90 EFA 14506” value in data set [10] came out at 11.4 µg/mL (≈ 22.4 µM). For the same compound, the “IC90 EFA 29212” value in data set [6] turned out to be 12.8 µg/mL (≈ 25.1 µM). Also, the “IC90 STA 25923” value in [7] is 5.1 µg/mL (≈ 10 µM). The “IC90 STA RMETHIC” value in data set [8] stood at 12.8 µg/mL (≈ 25.1 µM). Besides, in [9], the “IC90 SPY 8668” value was determined as 12.8 µg/mL (≈ 25.1 µM).

`CCc1cc2cc(C(c3ccccc3)C(O)(CCCCN(C)C)c3ccccc3)ccc2nc1OC` (single isomer, unassigned) [Compound 12]: the IC90 in [3] and in data set [4] was 1.53 µg/mL (≈ 3.17 µM) throughout.

Consider `CN(C)CC(c1cccc(F)c1)C(O)C(Cc1ccccc1)c1ccc2cc(Br)ccc2n1` (single isomer, unassigned) [Compound 4], for which the melting point was determined as 179 °C.

On to `CN(C)CC(c1cccc2ccccc12)C(O)C(Cc1ccccc1)c1ccc2cc(Br)ccc2n1` (single isomer, unassigned) [Compound 3], for which the melting point is 69 °C.

`CN(C)CC(c1cccc(F)c1)C(O)C(Cc1ccccc1)c1ccc2cc(Br)ccc2n1` (single isomer, unassigned) [Compound 1] had a melting point of 136 °C. Further, the IC90 in data set [1] is 10.1 µg/mL (≈ 19.9 µM). In [2], the IC90 turned out to be 12.8 µg/mL (≈ 25.2 µM). In [3], the IC90 stood at 12.8 µg/mL (≈ 25.2 µM). The IC90 in data set [4] is 12.8 µg/mL (≈ 25.2 µM). For the same compound, the IC90 in data set [6] amounted to 12.8 µg/mL (≈ 25.2 µM). Further, the IC90 in data set [7] was 12.8 µg/mL (≈ 25.2 µM). Moreover, the IC90 in [8] came to 12.8 µg/mL (≈ 25.2 µM). For the same compound, the IC90 in data set [11] was determined as 10.1 µg/mL (≈ 19.9 µM). In addition, in data set [9], the 90% effect concentration (IC90) was found to be 10.1 µg/mL (≈ 19.9 µM).

In the case of `CCc1cc2cc(C(c3ccccc3)C(O)(CCN(C)C)c3cccc4ccccc34)ccc2nc1Cl` (single isomer, unassigned) [Compound 6], the IC90 in [1] turned out to be 12.8 µg/mL (≈ 25.1 µM); in data set [2], 12.8 µg/mL (≈ 25.1 µM); in data set [3] it was 12.8 µg/mL (≈ 25.1 µM); in [4], 12.8 µg/mL (≈ 25.1 µM); in data set [5], 12.8 µg/mL (≈ 25.1 µM); in data set [10], 11.4 µg/mL (≈ 22.4 µM). The IC90 in data set [6] and in [9] was 12.8 µg/mL (≈ 25.1 µM) throughout. Further, the “IC90 STA 25923” value in data set [7] turned out to be 12.8 µg/mL (≈ 25.1 µM). The “IC90 STA RMETHIC” value in [8] was 50.9 µg/mL (≈ 100 µM).

Consider `COc1nc2ccc(C(c3ccccc3)C(O)(CCCCN(C)C)c3ccccc3)cc2cc1C` (single isomer, unassigned) [Compound 13], for which the IC90 in [3] and in [4] was 7.43 µg/mL (≈ 15.9 µM) in each case.

As to `CN(C)CC(c1cccc2ccccc12)C(O)C(Cc1ccccc1)c1ccc2cc(Br)ccc2n1` (single isomer, unassigned) [Compound 2], the melting point came to 143 °C. Further, the IC90 in [1] is 10.8 µg/mL (≈ 20 µM). Moreover, in data set [2], the IC90 was 10.8 µg/mL (≈ 20 µM). The IC90 in data set [3] stood at 12.1 µg/mL (≈ 22.4 µM). The IC90 in data set [4] was found to be 13.6 µg/mL (≈ 25.2 µM). Further, the IC90 in data set [5] was 13.6 µg/mL (≈ 25.2 µM). Moreover, the IC90 in [10] is 12.1 µg/mL (≈ 22.4 µM). The IC90 in data set [6] stood at 10.8 µg/mL (≈ 20 µM). For the same compound, the IC90 in [7] was found to be 13.6 µg/mL (≈ 25.2 µM). The IC90 in data set [8] came to 13.6 µg/mL (≈ 25.2 µM). In addition, the IC90 in data set [11] stood at 10.8 µg/mL (≈ 20 µM). In data set [9], the IC90 came to 10.8 µg/mL (≈ 20 µM).

In the case of `CCc1cc2ccc(C(c3ccccc3)C(O)(CCN(C)C)c3cc(F)cc(F)c3)cc2nc1Cl` (single isomer, unassigned) [Compound 10], the IC90 in data set [1] is 12.4 µg/mL (≈ 25 µM); in data set [2] it was 9.9 µg/mL (≈ 20 µM); in data set [3], 12.4 µg/mL (≈ 25 µM); in data set [4], 12.4 µg/mL (≈ 25 µM); in data set [5], 12.4 µg/mL (≈ 25 µM); in data set [6], 12.4 µg/mL (≈ 25 µM). In addition, the IC90 in [7], in [8] and in [9] was 12.4 µg/mL (≈ 25 µM) throughout.

For `CCc1cc2ccc(C(c3ccccc3)C(O)(CCN(C)C)c3cc(F)cc(F)c3)cc2nc1Cl` (single isomer, unassigned) [Compound 9], the “IC90 LMO 49594” value in data set [1] is 12.4 µg/mL (≈ 25 µM). Besides, the “IC90 PAE 27853” value in data set [2] came to 9.9 µg/mL (≈ 20 µM). In [3], the “IC90 STA 29213” value came to 11.1 µg/mL (≈ 22.4 µM). Moreover, the “IC90 SPN 6305” value in data set [4] was 12.4 µg/mL (≈ 25 µM). Further, the “IC90 BSU 43639” value in data set [5] was determined as 12.4 µg/mL (≈ 25 µM). Moreover, the IC90 turned out to be 11.1 µg/mL (≈ 22.4 µM) in data set [10] and 9.9 µg/mL (≈ 20 µM) in data set [11]. The “IC90 EFA 29212” value in data set [6] was determined as 12.4 µg/mL (≈ 25 µM). Further, the “IC90 STA 25923” value in [7] was found to be 12.4 µg/mL (≈ 25 µM). For the same compound, the “IC90 STA RMETHIC” value in data set [8] came out at 12.4 µg/mL (≈ 25 µM). Moreover, the “IC90 SPY 8668” value in data set [9] came out at 9.9 µg/mL (≈ 20 µM).
